Reference: patent US8257931B2 (President and Fellows of Harvard College, priority 2005, dated 2012)
Several values for one entry are separate records, joined by “and”; a condition that tells them apart may be missing. Identical values can stand only once. Like-named read-outs stand apart in the source and are kept apart here.

Assays:
eIF4E/eIF4G interaction = biological target: T1, eIF4E/eIF4G interaction (Mus musculus, UniProt P63073); test: Fluorescence polarization assay: binding of fluorescein-labeled eIF4G peptide to eIF4E; parameters: species or system murine; settings: triplicate, SD<±10%, read-out: IC50 (μM) (4E/4G FP)
T1 construct: made in house; host or cells: E. coli
Protocol: We adapted this assay to a microwell plate format and used it to screen the 16,000 compound Chembridge DiverSet E library. […] For screening and subsequent peptide binding assays measurements of fluorescence polarization were made using an LJL Analyst plate reader. For the screening assay a solution containing approximately 5 μM meIF4E, 60 nM labeled peptide, 0.05% bovine γ-globulin, and 2 mM DTT in a buffer composed of 50 mM sodium phosphate and 50 mM potassium chloride at pH 6.5 was used. […] The curve fitting for estimation of binding constants used equations derived by Roehrl et al.^22 Measurements of fluorescence polarization and anisotropy were made in black 384-well plates (Corning) using an Analyst plate reader (LJL Biosystems) Compounds were transferred to plates during the screening using a custom-built Seiko pin transfer robot at the Institute for Chemistry and Cell Biology (ICCB) at Harvard Medical School.
A fluorescence polarization (FP) assay was developed to measure binding of a peptide containing the conserved eIF4E-binding motif to eIF4E.
The assay was adapted to a microwell plate format and used to screen a number of libraries comprised of small molecule libraries for potential eIF4E/eIF4G interaction inhibitors.

A549 lung cancer cells = test: A549 proliferation, sulforhodamine B (SRB) assay; format: cell-based, human; settings: sulforhodamine B assay, triplicate
Protocol: FIG. 28 is a graph showing the results of a cell proliferation assay. A549 cells, which are human lung cancer cells, are grown in plates for five days in medium containing 5% FCS and compound. The number of cells is quantified by staining with sulforhodamine B.

[1] = Homo sapiens, A549, Table 1 of b280
[2] = Homo sapiens, A549, Table 1 of b347

T1 sequence (P63073 whole entry): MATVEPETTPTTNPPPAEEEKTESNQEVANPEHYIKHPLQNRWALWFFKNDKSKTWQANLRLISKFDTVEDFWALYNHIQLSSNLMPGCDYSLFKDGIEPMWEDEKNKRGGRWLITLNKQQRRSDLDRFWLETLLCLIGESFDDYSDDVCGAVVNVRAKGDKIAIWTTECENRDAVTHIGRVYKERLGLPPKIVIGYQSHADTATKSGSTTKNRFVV

Row | Compound | IC50 (eIF4E/eIF4G interaction; Table 1 of b280) [µM] | GI50 (A549 lung cancer cells; [1]) [µM] | GI50 (A549 lung cancer cells; Table 1) | IC50 (eIF4E/eIF4G interaction; Table 1 of b347) | GI50 (A549 lung cancer cells; [2]) [µM] | other results
1 | O=C(O)/C(Cc1ccccc1[N+](=O)[O-])=N/Nc1nc(-c2ccc3ccccc3c2)cs1 | 215 | 6 |  |  |  | 
2 | O=C(O)/C(=N/Nc1nc(-c2ccccc2)cs1)c1ccccc1 [E-6, Phenyl-[(4-phenyl-thiazol-2-yl)-hydrazono]-acetic acid] |  |  | 10 µM |  |  | GI50 (A549 lung cancer cells; Table 1, listed as E-4h): 10 µM
3 | OC/C(Cc1ccccc1)=N/Nc1nc(-c2ccccc2)cs1 [Z-15, 3-Phenyl-2-[(4-phenyl-thiazol-2-yl)-hydrazono]-propan-1-ol] | > 600 | 14 |  | > 600 µM | 14 | 
4 | O=C(O)/C(Cc1ccccc1)=N/Nc1nc(-c2ccc(N3CCOCC3)cc2)cs1 | > 125 |  |  |  |  | 
5 | O=C(Cc1ccccc1)NNc1nc(-c2ccccc2)cs1 [compound 12] |  |  |  | > 600 µM | > 20 | 
6 | O=C(O)C(Cc1ccccc1)C(=O)Nc1nc(-c2ccccc2)cs1 (stereo not drawn) [compound 19, 2-Benzyl-N-(4-phenyl-thiazol-2-yl)-malonamic acid] |  |  |  | > 600 µM |  | 
7 | O=C(O)/C(Cc1ccccc1[N+](=O)[O-])=N/Nc1nc(-c2ccc(Cl)c(Cl)c2)cs1 [Z-1, 2-{[4-(3,4-Dichloro-phenyl)-thiazol-2-yl]-hydrazono}-3-(2-nitro-phenyl)-propionic acid] |  | 6 |  |  | 5 ± 1 | 
8 | O=C(O)/C(=N/Nc1nc(-c2ccccc2)cs1)c1ccccc1 [Z-6, Phenyl-[(4-phenyl-thiazol-2-yl)-hydrazono]-acetic acid] | > 600 | 13 |  | > 600 µM | 13 | 
9 | O=C(O)/C(Cc1ccccc1)=N/Nc1nc(-c2ccc3c(c2)OCCCO3)cs1 | 400 |  |  |  |  | 
10 | O=C(O)/C(Cc1ccccc1)=N/Nc1nc(-c2ccccc2)c(-c2ccccc2)s1 [E-10, 2-[(4,5-Diphenyl-thiazol-2-yl)-hydrazono]-3-phenyl-propionic acid] | 90 |  | 1.5 µM | 100 µM and 88 µM |  | GI50 (A549 lung cancer cells; Table 1, listed as E-4o): 1.5 µM
11 | O=[N+]([O-])c1ccccc1CC(CO)NNc1nc(-c2ccc(Cl)c(Cl)c2)cs1 (stereo not drawn) [compound 14, 2-{N′-[4-(3,4-Dichloro-phenyl)-thiazol-2-yl]-hydrazino}-3-(2-nitro-phenyl)-propan-1-ol] |  |  |  | > 600 µM | 4 | 
12 | Cc1sc(N/N=C(\Cc2ccccc2)C(=O)O)nc1-c1ccccc1 [Z-9, 2-[(5-Methyl-4-phenyl-thiazol-2-yl)-hydrazono]-3-phenyl-propionic acid] | 240 | 4 |  | 240 µM | 4 | 
13 | O=C(O)/C(Cc1ccccc1)=N/Nc1nc(-c2ccccc2)cs1 [E-4, 3-Phenyl-2-[(4-phenyl-thiazol-2-yl)-hydrazono]-propionic acid] | > 600 |  | 14 µM and 17 µM | > 600 µM |  | GI50 (A549 lung cancer cells; Table 1, listed as E-4c): 16 µM
14 | O=C(O)C(Cc1ccccc1[N+](=O)[O-])=NNc1nc(-c2ccc(/N=N/c3ccccc3)cc2)cs1 (mixture of isomers) | 150 | 4 |  |  |  | 
15 | O=C(O)/C(Cc1ccccc1)=N/Nc1nc2ccccc2s1 [E-11, 2-(Benzothiazol-2-yl-hydrazono)-3-phenyl-propionic acid] |  |  | 4 µM |  |  | GI50 (A549 lung cancer cells; Table 1, listed as E-4p): 4 µM
16 | O=C(O)/C(Cc1ccccc1)=N/Nc1nc(-c2ccc(Cl)c(Cl)c2)cs1 [Z-3, 2-{[4-(3,4-Dichloro-phenyl)thiazol-2-yl]-hydrazono}-3-phenyl-propionic acid] | 300 |  | 14 µM |  |  | GI50 (A549 lung cancer cells; Table 1, listed as Z-4s): 14 µM
17 | Cc1sc(N/N=C(\Cc2ccccc2)C(=O)O)nc1-c1ccccc1 [E-9, 2-[(5-Methyl-4-phenyl-thiazol-2-yl)-hydrazono]-3-phenyl-propionic acid] | 350 |  | 6 µM | > 300 µM |  | GI50 (A549 lung cancer cells; Table 1, listed as E-4n): 6 µM
18 | O=C(O)C(Cc1ccccc1)=NNc1nc(-c2ccc3c(c2)OCCO3)cs1 (mixture of isomers) | 170 |  |  |  |  | 
19 | O=C(O)/C(Cc1ccccc1[N+](=O)[O-])=N/Nc1nc(-c2ccc(N3CCCC3)cc2)cs1 | > 600 | > 20 |  |  |  | 
20 | C/C(=N\Nc1nc(-c2ccccc2)cs1)C(=O)O [Z-7, 2-[(4-Phenyl-thiazol-2-yl)-hydrazono]-propionic acid] | > 600 | > 20 |  | > 600 µM | > 20 | 
